From patent US20080242590A1, “New Method 706” (ASTRAZENECA AB, priority 2007, published 2008)

How the values were obtained:
Type in all cases: biochemical
[1] = system: amyloid β peptide 1-40 (Aβ40); assay: Ex-vivo degradation of Aβ40 in guinea pig plasma; details: 10 μM phosphoramidon
Method: (§1) Degradation of amyloid β peptide 1-40 (Aβ40) and amyloid β peptide 1-42 (Aβ42) by neprilysin was investigated using heparinized plasma from male Dunkin Hartley guinea pigs, weighing 250-300 g (HBLidkoping ka). Blood was withdrawn from anaesthetized guinea pigs by heart puncture. The blood were collected into prechilled heparin-plasma tubes and centrifuged for 10 min at 4° C. at 3000×g within 20 minutes of sampling. Plasma samples were transferred to pre-chilled polypropylene tubes and immediately frozen on dry ice and stored at −70° C. prior to use. The experiments were performed on a pool of plasma from seven guinea pigs. His-Fc-Nep (6 μg/ml or 208 μg/ml) or 5 μg/ml recombinant human Neprilysin (R&D systems) with corresponding vehicles (50 mM Tris-HCl, 150 mM NaCl pH 7.5 or 25 mM Tris-HCl, 0.1 M NaCl pH 8.0) were incubated with a pool of plasma in presence or absence of 10 μM phosphoramidon (BIOMOL) at 37° C. for 0 and 4 h. A final concentration of 4.7 mM EDTA was added into the tubes before the amount of Aβ40 and Aβ42 was analysed using a commercial ELISA kit obtained from Biosource (Aβ1-40) or Innogenetics (Aβ1-42).

[2] = system: amyloid β peptide 1-42 (Aβ42); assay: Ex-vivo degradation of Aβ42 in guinea pig plasma; details: 10 μM, combined with 208 μg/ml His-Fc-Nep
Method: as §1

[3] = system: amyloid β peptide 1-40 (Aβ40); assay: Degradation of Aβ40 in human plasma (Example 18); details: 10 μM phosphoramidon
Method: Blood from eight individuals (5 females and 3 males) were collected into pre-chilled heparin-plasma tubes at the healthcare centre (AstraZeneca) at two different time points. Plasma was prepared by centrifugation for 20 min at 4° C. at 2500×g within 30 minutes of sampling. Plasma samples were transferred to pre-chilled polypropylene tubes and immediately frozen and stored at −70° C. prior to use. His-Fc-Nep (6 μg/ml) or 5 μg/ml recombinant human Neprilysin (R&D systems) with corresponding vehicles (50 mM Tris-HCl, 150 mM NaCl pH 7.5 or 25 mM Tris-HCl, 0.1 M NaCl pH 8.0) in presence or absence of 10 μM phosphoramidon was incubated with a pool of plasma at 37° C. for 0 and 4 h. A final concentration of 4.7 mM EDTA was added into the tubes before the amount of Aβ40 was analysed using a commercial ELISA kit obtained from Biosource. His-Fc-Nep (6 μg/ml) and commercial human recombinant neprilysin (5 μg/ml) degraded Aβ40 with 33% and 70%, respectively, compared to vehicle after 4 hours incubation at 37° C. The Aβ40 levels were unaffected after addition of 10 μM phosphoramidon (FIG. 4).

amyloid β 1-40 peptide = assay: Degradation of amyloid β 1-40 peptide by Fc-Neprilysin and Neprilysin in buffer; details: 10 μM Phosphoramidone
Method: The assay is measuring the remaining amyloid β 1-40 peptide (Bachem) concentration following its incubation in the presence of Neprilysin (R&D Systems) or Fc-Neprilysin with or without Neprilysin inhibitor. 100 μl of reaction mixture containing amyloid β 1-40 peptide (final concentrations, 300, 30 or 3 nM) and/or Neprilysin (2.4 μg/ml), and/or Fc-Neprilysin construct (2.4 μg/ml), and/or Phosphoramidone (10 μM) was incubated in a round bottom 96-well polypropylene plate at 37° C. for 2.5 hours. Following incubation, 10 μl of reaction mixture was transferred into Thermo-Fast© 96-well PCR plate (Abgene, UK) containing 10 μl of Standard Diluent (Gyros AB). Amyloid β 1-40 concentration was determined using Gyrolab Workstation LIF system. Biotinylated anti-amyloid β antibodies (6E10; final concentration 50 μg/ml; Signet) were used as capturing antibodies and polyclonal anti-human amyloid β antibodies (44-348; Biosource) labeled with Alexa Fluor 647 dye (Molecular probes) were used as detection antibodies. […] Amyloid β 1-40 peptide degradation by Neprilysin was calculated as a percentage of Amyloid β 1-40 peptide left after incubation in the presence of Neprilysin compared to the amyloid β 1-40 peptide concentration in the absence of Neprilysin.

CC(C)C[C@H](NP(=O)(O)O[C@@H]1O[C@@H](C)[C@H](O)[C@@H](O)[C@H]1O)C(=O)N[C@@H](Cc1c[nH]c2ccccc12)C(=O)O [Phosphoramidone, reference compound]
Aβ40 levels after addition of inhibitor to the enzyme incubation [1]: unaffected
Inhibition of the Aβ42 reduction by phosphoramidon [2]: not inhibited
Aβ40 levels after addition of inhibitor to the enzyme incubation [3]: unaffected
Specific Neprilysin activity in the presence of inhibitor (amyloid β 1-40 peptide): almost completely abolished
